From patent US9096555B2, “Methods for treating vascular leak syndrome” (Aerpio Therapeutics, Inc., priority 2009, dated 2015)
“Also recorded” adds a separate entry of the source.

Experiments:
IL-2 induced VLS = assay: IL-2 induced vascular leak syndrome in mice (blood pressure, shock, mortality); type: in vivo; details: then 20 mg/kg for 3 days
Method: Twenty-five mice were used for the following experiment. Five are selected as the control and received no treatment. The remaining twenty mice were divided into four groups of five mice each and dosed as follows over a period of 5 days:
Tie-2 signal amplifier at 40 mg/kg for the first 2 days, then at 20 mg/kg for 3 days.
(VSL mechanistic analysis.

[1] = test system: IL-2 induced hypotension and death; assay: Rescue of mice from IL-2 induced hypotension and death (systolic blood pressure); type: in vivo; details: C3H/HeN female mice; 400,000 IU of IL-2 and 40 mg/kg D91; after 5 days of treatment; FIG. 5
Method: A represents the systolic blood pressure of C3H/HeN female mice treated with vehicle control. […] Measurements were taken after 5 days of treatment.
A represents 0 mg/kg D91, B represents 1 mg/kg D91, C represents 3 mg/kg D91, D represents 10 mg/kg D91, and E represents 30 mg/kg D91.

[2] = test system: LPS-induced acute kidney injury; assay: Liposaccharide (LPS) induced vascular leak model: acute kidney injury (BUN, renal neutrophil infiltration); type: in vivo; details: male C57BL6 mice
Method: FIG. 7 depicts the level of blood urine nitrogen (BUN) in male C57BL6 mice injected i.p. with 0.2 mg E. coli lipopolysaccharides per 25 g body weight at 0 hours. Line (◯) represents mice receiving only LPS and line (●) represents mice receiving LPS and 50 mg/kg of D91 at 0, 8, and 16 hours.
FIG. 8 depicts the level of LPS-induced renal neutrophil infiltration at 24 hours in male C57BL6 mice injected i.p. with 0.2 mg E. coli lipopolysaccharides per 25 g body weight at 0 hours. A depicts the neutrophil infiltration in sham (conrol), B depicts the neutrophil infiltration in male C57BL6 mice injected i.p. with 0.2 mg E. coli lipopolysaccharides per 25 g body weight and 50 mg/kg of D91, C depicts mice receiving only LPS.
The following liposaccharide induced vascular leakage model can be used to confirm the ability of the disclosed compounds to decrease the effects of vascular leak syndrome caused by pathogens. […]
Male C57BL6 mice, 9 to 10 weeks old, were injected i.p. with 0.2 mg E. Coli lipopolysaccharide per 25 g body weight at time 0. […] Serum samples were analyzed for blood urea nitrogen (BUN) as a marker of kidney function.
Tissue samples from the animals were analyzed by high powered field microscopy to determine the number of polymorphonuclear leukocytes present.

[3] = test system: LPS-induced renal vascular leak; assay: LPS-induced renal vascular leak, 70 kDa fluorescent fixable dextran; type: in vivo; details: mice; LPS at time 0, D91 at 1, 6 and 16 h; sacrifice at 24 hours; FIG. 10c
Method: FIG. 10a is a micrograph of a renal section from a mouse treated with vehicle control that is subsequently injected with 70 kDa fluorescent fixable dextran by intravenous catheter 2 minutes prior to sacrifice. G indicates glomerular capillaries where the dye should normally be contained.
FIG. 10b is a micrograph showing the vascular leakage in cells of a renal section from a mouse treat with LPS that is subsequently injected with 70 kDa fluorescent fixable dextran by intravenous catheter 2 minutes prior to sacrifice.
The pattern of staining in this section is similar to 10a.
Phosphatase inhibition by the disclosed PTP-β inhibitors reduces LPS-induced renal vascular leak. Mice were injected with LPS at time 0 and D91 or vehicle at 1, 6, and 16 h. Two minutes prior to sacrifice at 24 hours 70 kDa fluorescent fixable dextrans were administered by intravenous catheter. […] FIG. 10a is a micrograph of the control sample for the 70 kDa sample wherein the Letter “G” represents glomerular capillaries where the dye should normally be contained. FIG. 10b represents a renal section taken from an LPS treated animal and FIG. 10c represents a renal section taken from an animal treated with LPS and D91.

[4] = test system: pAKT and pERK1/2 in EA.hy962 cells; assay: Western blot analysis of pAKT and pERK1/2 in EA.hy962 cells; type: cell-based; details: EA.hy962 cells cultured with varying amounts of D91 for 10 minutes; FIG. 9a
Method: FIG. 9a depicts a Western blot analysis showing the increase in pAKT and pERK1/2 when EA.hy962 cells were cultured in the presence of varying amounts of […] for 10 minutes. FIG. 9b depicts a Western blot analysis showing the levels of pAKT, pERK1/2 and β-Actin when EA.hy962 cells were cultured in the presence of 10 μg/mL […] from start (T=0) to 120 minutes.

brain edema after tMCAO = assay: Vasogenic edema after transient focal cerebral ischemia (tMCAO); type: in vivo, Sprague-Dawley rats; details: rats; tMCAO 60 min; 15 mg/kg t.i.d. s.c. starting 1 hour after stroke onset; after the 48 hour MRI
Method: 30 adult male Sprague-Dawley rats purchased from Charles River, Germany and weighing 250-330 g were used for the experiment. Animals were housed at a standard temperature (22±1° C.) and in a light-controlled environment (lights on from 7 am to 8 pm) with ad libitum access to food and water.
Animals were grouped as follows:
• Group A: 15 rats treated with Vehicle (2 mL/kg, t.i.d., s.c.) starting 1 hour after stroke onset • Group B: 15 rats treated with AKB-9778-AS (15 mg/kg, t.i.d., s.c.) starting 1 hour after stroke onset tMCAO
Transient focal cerebral ischemia was produced by MCA occlusion in male Sprague-Dawley rats according to Koizumi with modifications (Koizumi et al., Jpn. J. Stroke 8:1-8, 1986). […] The rats were carefully monitored for possible post-surgical complications after the tMCAO. […]
D91 or vehicle was administered s.c. three times a day. […] The body weight of each animal is measured daily. […]
Tissue viability and vasogenic edema was determined using absolute T2 MRI. […] In addition to absolute T2, spin density (amount of MRI visible protons, indicator of vasogenic edema) ratio of ipsi and contralateral ROI's was determined by extrapolating signal intensity at TE=0 from multiple TE data (intercept of T2 fitting).
For the determination of infarct volume, the same acquired T2-weighted images were analyzed using in-house written Matlab based software for morphometric measurement. […]

## COC(=O)N[C@@H](Cc1ccccc1)C(=O)N[C@@H](Cc1ccc(NS(=O)(=O)O)cc1)c1csc(-c2cccs2)n1 [Compound D91, 4-{(S)-2-[(S)-2-(methoxycarbonylamino)-3-phenylpropanamido]-2-[2-(thiophen-2-yl)thiazol-4-yl]ethyl}phenylsulfamic acid]
IL-2 induced VLS; IL-2 180,000 or 400,000 IU for 5 days plus D91 40 mg/kg first 2 days, FIG. 1
  blood pressure: little effect on blood pressure
IL-2 induced VLS; high dose IL-2 (400,000 IU, 5 days) plus D91 40 mg/kg first 2 days, FIG. 2
  clinical symptoms of shock: no signs of shock
IL-2 induced VLS; high dose IL-2 (400,000 IU, 5 days) plus D91 40 mg/kg first 2 days, FIG. 3
  IL-2 induced mortality: survived
[1]
  rescue from IL-2 induced hypotension and death (systolic blood pressure): rescue of mice from IL-2 induced hypotension and death
[2]; LPS 0.2 mg per 25 g i.p., D91 50 mg/kg at 0, 8 and 16 hours, at 24 hours, FIG. 7
  blood urine nitrogen (BUN) level: less than 80 mg/dL
[2]; LPS plus D91 50 mg/kg, 24 hours, average, FIG. 8
  number of PMN cells present (renal neutrophil infiltration), high powered field microscopy: 12
[3]
  extrusion of 70 kDa fluorescent dextran dye beyond the small peritubular capillaries (renal vascular leak): vascular integrity is preserved; also recorded: reduced
[4]
  pAKT and pERK1/2 (Western blot): increase
Brain edema after tMCAO
  brain tissue wet weight in ischemic hemisphere (edema): significantly lower
